Assay results from PubChem BioAssay AID248 (DTP/NCI, 2004).
Values joined by “and” are separate entries in the source; they are usually repeats but may differ in a detail not shown here. Identical values can stand only once. Toxic doses and inconclusive results are not listed. No stated cut-off is given here; in the data, active means T/C of 150% or more; inactive means T/C below 125%.

System: L1210 leukemia ip in BDF1 mice, survival T/C
Assay: NCI In Vivo Anticancer Drug Screen. Data for tumor model L1210 Leukemia (intraperitoneal) in B6D2F1 (BDF1) mice
Conditions: endpoint: mean survival time, higher = longer survival
Procedure, shortened: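 Tumor cells were implanted, animals were treated, and survival was followed. The result divides the treated measurement by the vehicle-control measurement.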

[1] = dose: 100.0 mg/kg/injection, schedule: Q01DX009 (ip), vehicle: Klucel (hydroxypropylcellulose) (HPC)
[2] = dose: 200.0 mg/kg/injection, schedule: Q01DX009 (ip), vehicle: Klucel (hydroxypropylcellulose) (HPC)
[3] = dose: 400.0 mg/kg/injection, schedule: Q01DX009 (ip), vehicle: Klucel (hydroxypropylcellulose) (HPC)
[4] = dose: 50.0 mg/kg/injection, schedule: Q01DX001 (ip), vehicle: saline
[5] = dose: 100.0 mg/kg/injection, schedule: Q01DX001 (ip), vehicle: saline
[6] = dose: 200.0 mg/kg/injection, schedule: Q01DX001 (ip), vehicle: saline
[7] = dose: 100.0 mg/kg/injection, schedule: Q04DX003 (ip), vehicle: Klucel (hydroxypropylcellulose) (HPC)
[8] = dose: 200.0 mg/kg/injection, schedule: Q04DX003 (ip), vehicle: Klucel (hydroxypropylcellulose) (HPC)
[9] = dose: 400.0 mg/kg/injection, schedule: Q04DX003 (ip), vehicle: Klucel (hydroxypropylcellulose) (HPC)
[10] = dose: 100.0 mg/kg/injection, schedule: Q01DX009 (ip), vehicle: saline with Tween-80
[11] = dose: 200.0 mg/kg/injection, schedule: Q01DX009 (ip), vehicle: saline with Tween-80
[12] = dose: 400.0 mg/kg/injection, schedule: Q01DX009 (ip), vehicle: saline with Tween-80

Measured: T/C

CC(=O)c1ccc(OC(=O)Nc2ccc(C)cc2)cc1
inactive: [1] 109 % of control | [2] 105 % of control | [3] 88 % of control

Cc1cc(Nc2ncnc(Cl)c2N)ccc1N
inactive: dose: 100.0 mg/kg/injection, schedule: Q01DX001 (ip), vehicle: carboxymethylcellulose (CMC) 93 % of control | dose: 200.0 mg/kg/injection, schedule: Q01DX001 (ip), vehicle: carboxymethylcellulose (CMC) 98 % of control | dose: 400.0 mg/kg/injection, schedule: Q01DX001 (ip), vehicle: carboxymethylcellulose (CMC) 96 % of control

O=C1CCC(=O)N1[N+](=O)[O-]
inactive: [4] 95 % of control and 89 % of control | [5] 97 % of control and 101 % of control | [6] 103 % of control and 107 % of control

O=C(NC(=S)Nc1ccc(F)cc1)c1cccc2ccccc12
inactive: [1] 96 % of control | [7] 104 % of control | [2] 91 % of control | [8] 100 % of control | [3] 101 % of control | [9] 97 % of control

CC(=O)N1c2ccccc2C(=O)OC1c1ccc2c(c1)CCC2 (configuration not stated)
inactive: [7] 94 % of control | [8] 89 % of control | [9] 102 % of control

CC1(C)CCN1Cc1ccccc1
inactive: dose: 12.0 mg/kg/injection, schedule: Q01DX001 (ip), vehicle: saline 98 % of control | dose: 12.0 mg/kg/injection, schedule: Q04DX003 (ip), vehicle: saline 95 % of control | dose: 12.5 mg/kg/injection, schedule: Q01DX009 (ip), vehicle: saline 95 % of control | dose: 25.0 mg/kg/injection, schedule: Q01DX001 (ip), vehicle: saline 100 % of control | dose: 25.0 mg/kg/injection, schedule: Q01DX009 (ip), vehicle: saline 101 % of control | dose: 25.0 mg/kg/injection, schedule: Q04DX003 (ip), vehicle: saline 101 % of control | [4] 96 % of control | dose: 50.0 mg/kg/injection, schedule: Q01DX009 (ip), vehicle: saline 123 % of control | dose: 50.0 mg/kg/injection, schedule: Q04DX003 (ip), vehicle: saline 96 % of control

COC(=O)NS(=O)(=O)c1cccn1C
inactive: dose: 100.0 mg/kg/injection, schedule: Q01DX001 (ip), vehicle: Klucel (hydroxypropylcellulose) (HPC) 106 % of control | [7] 106 % of control | dose: 200.0 mg/kg/injection, schedule: Q01DX001 (ip), vehicle: Klucel (hydroxypropylcellulose) (HPC) 104 % of control | [8] 100 % of control | dose: 400.0 mg/kg/injection, schedule: Q01DX001 (ip), vehicle: Klucel (hydroxypropylcellulose) (HPC) 104 % of control | [9] 95 % of control

N#C/C(=C(/Cc1ccc(F)cc1)NP(=O)(c1ccccc1)c1ccccc1)c1ccc(F)cc1
inactive: dose: 100.0 mg/kg/injection, schedule: Q01DX001 (ip), vehicle: steriod suspending solution 101 % of control | dose: 200.0 mg/kg/injection, schedule: Q01DX001 (ip), vehicle: steriod suspending solution 90 % of control

Cc1ccc(S(=O)(=O)N(CC2OCC3OC(C)(C)OC23)N=O)cc1 (configuration not stated)
inactive: dose: 75.0 mg/kg/injection, schedule: Q01DX001 (ip), vehicle: saline 100 % of control | dose: 150.0 mg/kg/injection, schedule: Q01DX001 (ip), vehicle: saline 98 % of control | dose: 300.0 mg/kg/injection, schedule: Q01DX001 (ip), vehicle: saline 98 % of control

CCCCc1nc2c(O)ccc(O)c2nc1C
inactive: dose: 75.0 mg/kg/injection, schedule: Q01DX001 (ip), vehicle: other 93 % of control | dose: 75.0 mg/kg/injection, schedule: Q04DX003 (ip), vehicle: other 101 % of control | dose: 150.0 mg/kg/injection, schedule: Q01DX001 (ip), vehicle: other 88 % of control | dose: 150.0 mg/kg/injection, schedule: Q04DX003 (ip), vehicle: other 104 % of control | dose: 300.0 mg/kg/injection, schedule: Q01DX001 (ip), vehicle: other 87 % of control

C=CCNC(=O)Oc1cccc(NC(=O)CC)c1
inactive: [10] 94 % of control | [11] 91 % of control | [12] 87 % of control

C=CCNc1n[nH]c(=S)s1
inactive: [10] 101 % of control | [11] 95 % of control | [12] 98 % of control

CC1CCC2(C)CCC3(C)C4=CCC5C(C)(C)C(O)CCC5(C)C4CCC3(C)C2C1C (configuration not stated)
inactive: dose: 200.0 mg/kg/injection, schedule: Q01DX009 (ip), vehicle: saline 87 % of control | dose: 400.0 mg/kg/injection, schedule: Q01DX009 (ip), vehicle: saline 96 % of control

C(C[P+](c1ccccc1)(c1ccccc1)c1ccccc1)=C(c1ccccc1)c1ccccc1
inactive: dose: 10.0 mg/kg/injection, schedule: Q01DX001 (ip), vehicle: saline 103 % of control | dose: 40.0 mg/kg/injection, schedule: Q01DX001 (ip), vehicle: saline 95 % of control

CSc1ncnc2c1ncn2N(CC1CO1)C(C)=O (configuration not stated)
inactive: dose: 100.0 mg/kg/injection, schedule: Q04DX002 (ip), vehicle: saline with Tween-80 91 % of control | dose: 200.0 mg/kg/injection, schedule: Q04DX002 (ip), vehicle: saline with Tween-80 91 % of control | dose: 400.0 mg/kg/injection, schedule: Q04DX002 (ip), vehicle: saline with Tween-80 95 % of control

NC(=O)Cn1cnc2c(N)ncnc21
inactive: dose: 100.0 mg/kg/injection, schedule: Q04DX003 (ip), vehicle: saline with Tween-80 95 % of control | dose: 200.0 mg/kg/injection, schedule: Q04DX003 (ip), vehicle: saline with Tween-80 95 % of control | dose: 400.0 mg/kg/injection, schedule: Q04DX003 (ip), vehicle: saline with Tween-80 101 % of control

CCOC(=O)Nc1ccc(OC(=O)Oc2ccc(NC(=O)OCC)cc2)cc1
inactive: [5] 97 % of control | [6] 97 % of control | dose: 400.0 mg/kg/injection, schedule: Q01DX001 (ip), vehicle: saline 86 % of control

CC1=C2[C@H]3OC(=O)[C@@H](C)[C@@H]3CC[C@@]2(C)C=CC1=O
inactive: [5] 101 % of control | [7] 97 % of control | [6] 101 % of control | [8] 103 % of control

COC(=O)C(C(=O)OC)C(c1ccccc1)C(Br)(C(=O)OC)C(=O)OC (configuration not stated)
inactive: [10] 102 % of control | [11] 94 % of control

NNC(=O)c1nc(N)n[nH]1
inactive: [10] 98 % of control | [11] 95 % of control | [12] 109 % of control

N#CSCc1ccc(CSC#N)c(Br)c1
inactive: dose: 75.0 mg/kg/injection, schedule: Q01DX009 (ip), vehicle: saline 88 % of control
